In ChEMBL document CHEMBL3769388, “Optimization of a Dicarboxylic Series for in Vivo Inhibition of Citrate Transport by the Solute Carrier 13 (SLC13) Family” (J Med Chem, 2016):
Values after ≈ are worked out from the molar mass of the structure shown. Active and inactive are the calls of the source. No cut-off for these calls is given here.

How the values were obtained:
Cytochrome P450 2C8 = Cytochrome P450 2C8 (Homo sapiens, UniProt P10632); test: Inhibition of CYP2C8 (unknown origin); type: ADME
Rattus norvegicus [1] = test: Decrease in [14C]citrate uptake in iv dosed Wistar Han rat testis measured after 185 to 200 mins by scintillation counting method; type: functional, organism-based
Mus musculus = test: Decrease in fasting glucose levels in DIO C57/B6 mouse model in basal portion at 44 mg/kg/hr for 90 mins; type: functional, organism-based
Rattus norvegicus [2] = test: Decrease in [14C]citrate uptake in iv dosed Wistar Han rat kidney measured after 185 to 200 mins by scintillation counting method; type: functional, organism-based
[3] = molecular target: Gamma-aminobutyric acid receptor subunit alpha-1 (Homo sapiens) (UniProt P14867); test: Inhibition of GABRA1 (unknown origin)
[4] = molecular target: D(1A) dopamine receptor (Homo sapiens) (UniProt P21728); test: Inhibition of D1 (unknown origin)
Rattus norvegicus [5] = organism: Rattus norvegicus; test: Increase in […][13C]-citrate levels in rat liver measured over 140 to 150 mins by UPLC-MS/MS analysis; type: functional, organism-based
Cytochrome P450 3A4 = Cytochrome P450 3A4 (Homo sapiens, UniProt P08684); test: Inhibition of CYP3A4 (unknown origin); type: ADME
[6] = molecular target: Epidermal growth factor receptor (Homo sapiens) (UniProt P00533); test: Inhibition of EGFR (unknown origin)
[7] = molecular target: Gastrin/cholecystokinin type B receptor (Homo sapiens) (UniProt P32239); test: Inhibition of CCKBR (unknown origin)
[8] = molecular target: Prostaglandin G/H synthase 2 (Homo sapiens) (UniProt P35354); test: Inhibition of cyclooxygenase 2 (unknown origin)
[9] = molecular target: 3',5'-cyclic-AMP phosphodiesterase 4D (Homo sapiens) (UniProt Q08499); test: Inhibition of PDE4D2 (unknown origin)
[10] = Thermodynamic solubility of compound in aqueous solution at pH 6.5; type: physicochemical; details: read-out: Therm_solubility
Cytochrome P450 2C9 = Cytochrome P450 2C9 (Homo sapiens, UniProt P11712); test: Inhibition of CYP2C9 (unknown origin); type: ADME
[11] = molecular target: ATP-citrate synthase (Homo sapiens) (UniProt P53396); test: Inhibition of ACL (unknown origin) upto 30 uM
[12] = Total plasma clearance in Wistar Han rat at 1 mg/kg, iv by LC-MS/MS analysis; type: ADME, organism-based
[13] = molecular target: Muscarinic acetylcholine receptor M1 (Homo sapiens) (UniProt P11229); test: Inhibition of M1 (unknown origin)
Rattus norvegicus [14] = organism: Rattus norvegicus; test: Increase in [12C]-citrate levels in rat plasma measured over 140 to 150 mins by UPLC-MS/MS analysis; type: functional, organism-based
[15] = molecular target: Mitogen-activated protein kinase 14 (Homo sapiens) (UniProt Q16539); test: Inhibition of MAPK14/P38-alpha (unknown origin)
Rattus norvegicus [16] = organism: Rattus norvegicus; test: Increase in […][13C]-citrate levels in rat plasma measured over 140 to 150 mins by UPLC-MS/MS analysis; type: functional, organism-based
[17] = molecular target: Acetylcholinesterase (Homo sapiens) (UniProt P22303); test: Inhibition of ACHE (unknown origin)
[18] = molecular target: T1, Solute carrier family 13 member 2 (Homo sapiens, UniProt Q13183); test: Inhibition of NaDC1 (unknown origin) expressed in HEK293 cells assessed as inhibition of [14C]citrate uptake by microbeta plate reader analysis; type: cell-based
T1 sequence (Q13183 whole entry): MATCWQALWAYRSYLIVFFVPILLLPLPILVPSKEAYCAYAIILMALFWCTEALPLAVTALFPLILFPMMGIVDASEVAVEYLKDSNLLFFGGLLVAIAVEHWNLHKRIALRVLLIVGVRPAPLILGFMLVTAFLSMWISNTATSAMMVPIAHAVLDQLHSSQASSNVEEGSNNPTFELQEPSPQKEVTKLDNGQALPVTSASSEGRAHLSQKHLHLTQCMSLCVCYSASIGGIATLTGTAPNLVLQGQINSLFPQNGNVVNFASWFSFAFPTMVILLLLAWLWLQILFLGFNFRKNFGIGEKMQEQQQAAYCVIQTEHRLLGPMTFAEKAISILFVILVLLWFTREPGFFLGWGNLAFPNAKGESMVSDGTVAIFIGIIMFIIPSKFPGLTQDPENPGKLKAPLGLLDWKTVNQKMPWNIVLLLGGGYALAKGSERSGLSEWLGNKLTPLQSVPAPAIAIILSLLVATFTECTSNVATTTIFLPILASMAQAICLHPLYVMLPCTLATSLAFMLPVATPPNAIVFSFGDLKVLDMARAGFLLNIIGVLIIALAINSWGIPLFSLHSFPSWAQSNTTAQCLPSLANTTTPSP

[19] = molecular target: Beta-1 adrenergic receptor (Homo sapiens) (UniProt P08588); test: Inhibition of ADRB1 (unknown origin)
[20] = molecular target: Vasopressin V1a receptor (Homo sapiens) (UniProt P37288); test: Inhibition of AVPR1A (unknown origin)
[21] = molecular target: 5-hydroxytryptamine receptor 2A (Homo sapiens) (UniProt P28223); test: Inhibition of 5HT2A receptor (unknown origin)
[22] = Renal clearance in Wistar Han rat at 1 mg/kg, iv by LC-MS/MS analysis; type: ADME, organism-based, Kidney; details: in vivo
[23] = molecular target: Na(+)/citrate cotransporter (Homo sapiens, UniProt Q86YT5); test: Inhibition of NaCT (unknown origin) expressed in HEK293 cells assessed as inhibition of [14C]citrate uptake by microbeta plate reader analysis; type: cell-based; details: read-out: IC50
[24] = molecular target: Histamine H1 receptor (Homo sapiens) (UniProt P35367); test: Inhibition of H1 (unknown origin)
[25] = molecular target: D(2) dopamine receptor (Homo sapiens) (UniProt P14416); test: Inhibition of D2 (unknown origin)
[26] = molecular target: Cannabinoid receptor 1 (Homo sapiens) (UniProt P21554); test: Inhibition of CB1 (unknown origin)
[27] = molecular target: Alpha-2B adrenergic receptor (Homo sapiens) (UniProt P18089); test: Inhibition of ADRA2B (unknown origin)
[28] = molecular target: Muscarinic acetylcholine receptor M2 (Homo sapiens) (UniProt P08172); test: Inhibition of M2 (unknown origin)
[29] = molecular target: Peroxisome proliferator-activated receptor gamma (Homo sapiens) (UniProt P37231); test: Inhibition of PPAR gamma (unknown origin)
[30] = molecular target: Neuronal acetylcholine receptor; alpha4/beta2 (Homo sapiens) (UniProt P17787+P43681); test: Inhibition of alpha-4/beta-2 (unknown origin); type: protein-complex assay
[31] = Passive permeability in MDCK cells; type: ADME, cell-based, Canis lupus familiaris; details: dog
[32] = molecular target: Sodium-dependent serotonin transporter (Homo sapiens) (UniProt P31645); test: Inhibition of 5HTT (unknown origin)
[33] = molecular target: Beta-2 adrenergic receptor (Homo sapiens) (UniProt P07550); test: Inhibition of ADRB2 (unknown origin)
Cytochrome P450 2D6 = Cytochrome P450 2D6 (Homo sapiens, UniProt P10635); test: Inhibition of CYP2D6 (unknown origin); type: ADME
[34] = molecular target: Tyrosine-protein kinase ABL1 (Homo sapiens) (UniProt P00519); test: Inhibition of ABL1 (unknown origin)

Sequence of Epidermal growth factor receptor (Homo sapiens) (P00533 whole entry): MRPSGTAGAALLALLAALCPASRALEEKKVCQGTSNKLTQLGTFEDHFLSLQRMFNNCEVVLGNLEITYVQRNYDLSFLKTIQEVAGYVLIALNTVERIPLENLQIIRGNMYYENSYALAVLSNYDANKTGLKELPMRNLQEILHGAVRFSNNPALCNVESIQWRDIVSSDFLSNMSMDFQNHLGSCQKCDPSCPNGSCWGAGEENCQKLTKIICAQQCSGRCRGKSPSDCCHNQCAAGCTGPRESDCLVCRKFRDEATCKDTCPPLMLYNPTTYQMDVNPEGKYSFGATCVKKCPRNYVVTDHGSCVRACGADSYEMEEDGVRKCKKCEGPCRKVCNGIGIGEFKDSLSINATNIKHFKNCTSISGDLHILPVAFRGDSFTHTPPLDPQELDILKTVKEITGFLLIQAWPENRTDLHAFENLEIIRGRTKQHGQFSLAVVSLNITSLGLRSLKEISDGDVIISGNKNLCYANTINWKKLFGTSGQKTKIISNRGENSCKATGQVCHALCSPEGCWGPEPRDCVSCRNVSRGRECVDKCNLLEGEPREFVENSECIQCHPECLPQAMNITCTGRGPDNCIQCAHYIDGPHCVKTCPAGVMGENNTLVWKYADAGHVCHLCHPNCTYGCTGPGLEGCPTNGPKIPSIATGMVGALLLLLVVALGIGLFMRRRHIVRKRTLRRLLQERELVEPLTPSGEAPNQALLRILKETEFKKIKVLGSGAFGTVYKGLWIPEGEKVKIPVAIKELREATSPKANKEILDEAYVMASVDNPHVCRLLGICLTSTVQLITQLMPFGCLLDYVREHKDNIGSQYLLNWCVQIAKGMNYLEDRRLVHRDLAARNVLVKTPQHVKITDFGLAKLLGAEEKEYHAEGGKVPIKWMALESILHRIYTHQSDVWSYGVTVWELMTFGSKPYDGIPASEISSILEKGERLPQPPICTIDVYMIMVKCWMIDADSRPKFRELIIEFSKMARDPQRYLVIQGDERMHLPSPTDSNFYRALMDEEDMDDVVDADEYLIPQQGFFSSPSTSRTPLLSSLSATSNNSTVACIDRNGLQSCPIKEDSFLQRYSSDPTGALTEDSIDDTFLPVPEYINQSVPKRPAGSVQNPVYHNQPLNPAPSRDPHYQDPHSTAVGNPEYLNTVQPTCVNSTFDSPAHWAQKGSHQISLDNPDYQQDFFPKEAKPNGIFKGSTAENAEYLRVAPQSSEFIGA
Sequence of ATP-citrate synthase (Homo sapiens) (P53396 whole entry): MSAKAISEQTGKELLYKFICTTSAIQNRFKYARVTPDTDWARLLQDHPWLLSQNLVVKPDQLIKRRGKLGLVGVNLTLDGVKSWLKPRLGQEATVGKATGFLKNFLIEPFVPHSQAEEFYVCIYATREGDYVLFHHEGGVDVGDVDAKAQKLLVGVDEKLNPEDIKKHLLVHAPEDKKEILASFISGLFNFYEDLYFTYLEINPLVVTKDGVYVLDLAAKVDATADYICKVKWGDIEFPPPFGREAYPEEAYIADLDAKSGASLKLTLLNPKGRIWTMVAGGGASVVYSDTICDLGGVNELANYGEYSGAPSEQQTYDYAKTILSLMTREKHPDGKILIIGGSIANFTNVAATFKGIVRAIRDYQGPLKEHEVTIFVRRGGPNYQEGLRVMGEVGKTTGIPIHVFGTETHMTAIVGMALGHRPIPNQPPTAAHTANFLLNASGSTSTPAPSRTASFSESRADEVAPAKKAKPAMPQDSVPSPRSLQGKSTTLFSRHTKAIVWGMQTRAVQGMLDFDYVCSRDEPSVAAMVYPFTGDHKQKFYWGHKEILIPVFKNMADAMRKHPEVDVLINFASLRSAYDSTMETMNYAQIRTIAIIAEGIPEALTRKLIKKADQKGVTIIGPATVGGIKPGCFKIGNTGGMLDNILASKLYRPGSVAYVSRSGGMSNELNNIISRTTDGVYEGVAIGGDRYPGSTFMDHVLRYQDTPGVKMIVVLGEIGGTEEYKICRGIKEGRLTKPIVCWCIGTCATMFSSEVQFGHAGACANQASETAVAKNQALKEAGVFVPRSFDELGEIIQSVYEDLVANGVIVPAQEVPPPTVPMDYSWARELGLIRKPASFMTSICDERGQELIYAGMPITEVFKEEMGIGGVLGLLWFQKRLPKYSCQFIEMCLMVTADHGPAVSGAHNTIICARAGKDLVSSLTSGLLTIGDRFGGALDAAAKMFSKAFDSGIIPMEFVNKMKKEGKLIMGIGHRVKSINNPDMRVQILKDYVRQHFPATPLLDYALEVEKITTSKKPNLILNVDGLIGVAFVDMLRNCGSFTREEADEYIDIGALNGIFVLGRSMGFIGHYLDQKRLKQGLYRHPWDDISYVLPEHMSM
Sequence of Cytochrome P450 2C8 (P10632 whole entry): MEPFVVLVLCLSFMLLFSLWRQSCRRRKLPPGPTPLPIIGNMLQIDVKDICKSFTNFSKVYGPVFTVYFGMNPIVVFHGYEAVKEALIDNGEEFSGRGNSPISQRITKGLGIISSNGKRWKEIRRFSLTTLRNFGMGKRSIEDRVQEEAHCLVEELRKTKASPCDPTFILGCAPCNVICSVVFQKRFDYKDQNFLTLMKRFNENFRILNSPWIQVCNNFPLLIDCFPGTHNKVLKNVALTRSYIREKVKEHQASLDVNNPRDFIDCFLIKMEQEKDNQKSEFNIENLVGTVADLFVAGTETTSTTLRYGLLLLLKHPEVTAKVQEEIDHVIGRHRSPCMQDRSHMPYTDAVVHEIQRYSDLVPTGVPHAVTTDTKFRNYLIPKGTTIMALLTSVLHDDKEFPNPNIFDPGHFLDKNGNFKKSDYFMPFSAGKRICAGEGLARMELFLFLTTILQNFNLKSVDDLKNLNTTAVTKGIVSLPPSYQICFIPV
Sequence of Gamma-aminobutyric acid receptor subunit alpha-1 (Homo sapiens) (P14867 whole entry): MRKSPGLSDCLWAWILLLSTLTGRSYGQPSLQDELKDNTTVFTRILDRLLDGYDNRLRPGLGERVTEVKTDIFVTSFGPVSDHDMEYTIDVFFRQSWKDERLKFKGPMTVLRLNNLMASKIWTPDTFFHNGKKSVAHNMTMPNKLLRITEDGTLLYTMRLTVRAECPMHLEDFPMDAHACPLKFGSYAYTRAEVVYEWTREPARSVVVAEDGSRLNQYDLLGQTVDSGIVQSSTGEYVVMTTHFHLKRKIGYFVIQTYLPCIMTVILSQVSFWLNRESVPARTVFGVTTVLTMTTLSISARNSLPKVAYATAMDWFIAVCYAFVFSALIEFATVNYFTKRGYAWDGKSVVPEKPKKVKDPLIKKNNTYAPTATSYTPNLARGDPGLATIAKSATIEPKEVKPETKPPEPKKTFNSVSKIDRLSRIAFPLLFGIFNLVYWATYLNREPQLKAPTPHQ
Sequence of Beta-1 adrenergic receptor (Homo sapiens) (P08588 whole entry, looked up): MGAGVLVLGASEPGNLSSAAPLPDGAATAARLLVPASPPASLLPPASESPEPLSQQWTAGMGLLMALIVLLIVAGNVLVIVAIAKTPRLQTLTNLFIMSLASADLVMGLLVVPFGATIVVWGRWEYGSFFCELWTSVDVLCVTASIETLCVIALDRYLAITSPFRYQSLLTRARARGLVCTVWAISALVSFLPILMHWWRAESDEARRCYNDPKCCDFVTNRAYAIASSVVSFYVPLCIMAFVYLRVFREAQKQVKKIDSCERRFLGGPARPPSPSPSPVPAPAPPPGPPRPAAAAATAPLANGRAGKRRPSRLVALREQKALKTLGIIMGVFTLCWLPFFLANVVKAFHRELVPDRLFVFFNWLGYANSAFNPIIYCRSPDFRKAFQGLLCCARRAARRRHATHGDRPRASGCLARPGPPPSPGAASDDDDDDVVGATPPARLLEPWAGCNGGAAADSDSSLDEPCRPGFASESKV
Sequence of Acetylcholinesterase (Homo sapiens) (P22303 whole entry): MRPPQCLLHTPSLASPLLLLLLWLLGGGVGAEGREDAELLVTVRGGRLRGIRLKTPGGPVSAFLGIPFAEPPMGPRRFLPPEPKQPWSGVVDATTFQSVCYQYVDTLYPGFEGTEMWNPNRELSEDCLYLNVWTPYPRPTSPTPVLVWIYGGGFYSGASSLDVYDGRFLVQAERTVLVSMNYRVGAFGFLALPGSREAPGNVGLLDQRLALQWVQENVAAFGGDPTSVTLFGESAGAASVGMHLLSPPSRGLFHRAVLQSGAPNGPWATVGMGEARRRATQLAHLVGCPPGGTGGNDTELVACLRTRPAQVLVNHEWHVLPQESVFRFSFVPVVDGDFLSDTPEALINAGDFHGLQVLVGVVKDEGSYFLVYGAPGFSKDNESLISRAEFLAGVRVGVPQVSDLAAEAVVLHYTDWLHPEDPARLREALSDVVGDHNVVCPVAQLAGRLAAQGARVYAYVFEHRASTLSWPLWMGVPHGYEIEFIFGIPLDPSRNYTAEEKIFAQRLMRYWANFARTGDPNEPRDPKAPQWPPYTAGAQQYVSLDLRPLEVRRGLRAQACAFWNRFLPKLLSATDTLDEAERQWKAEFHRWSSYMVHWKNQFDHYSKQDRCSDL
Sequence of D(1A) dopamine receptor (Homo sapiens) (P21728 whole entry): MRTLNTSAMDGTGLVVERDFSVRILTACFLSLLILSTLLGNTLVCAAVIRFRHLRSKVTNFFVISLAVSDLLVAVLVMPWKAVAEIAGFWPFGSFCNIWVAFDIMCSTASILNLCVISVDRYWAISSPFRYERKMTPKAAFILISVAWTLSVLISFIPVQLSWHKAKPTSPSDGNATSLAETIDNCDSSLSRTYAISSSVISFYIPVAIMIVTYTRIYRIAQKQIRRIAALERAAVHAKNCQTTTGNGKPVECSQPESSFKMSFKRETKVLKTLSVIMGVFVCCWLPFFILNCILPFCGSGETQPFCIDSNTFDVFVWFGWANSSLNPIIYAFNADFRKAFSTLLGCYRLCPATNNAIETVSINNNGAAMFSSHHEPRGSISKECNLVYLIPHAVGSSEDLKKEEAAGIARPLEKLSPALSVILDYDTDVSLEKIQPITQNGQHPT

With `COc1ncc(C)cc1CC[C@@](O)(CC(=O)O)C(=O)O` the “inhibition (INH)” value (Cytochrome P450 2C8) was “Not Active”, the IC50 (Rattus norvegicus [1]) was 1 µM and the inhibition (Mus musculus) was “Active”. For the same compound, the IC50 (Rattus norvegicus [2]) was 1 µM, the inhibition [3] was “inactive” and the inhibition [4] was “inactive”. The Activity (Rattus norvegicus [5]) was “Active”, the “inhibition (INH)” value (Cytochrome P450 3A4) was “Not Active” and the inhibition [6] was “inactive”. The inhibition [7] was “inactive”, the inhibition [8] was “inactive” and the inhibition [9] was “inactive”. The solubility thermodynamic [10] was 24 µM (≈ 6.8 µg/mL), the “inhibition (INH)” value (Cytochrome P450 2C9) was “Not Active” and the inhibition [11] was “inactive”. The clearance [12] was 15.8 mL/min/kg, the inhibition [13] was “inactive” and the Activity (Rattus norvegicus [14]) was “Active”. The inhibition [15] was “inactive”, the Activity (Rattus norvegicus [16]) was “Active” and the inhibition [17] was “inactive”. The IC50 ([18]; read-out: IC50) was 13.2 µM, the IC50 ([18]; read-out: pIC50 (converted)) was 10 µM and the inhibition [19] was “inactive”. The inhibition [20] was “inactive”, the inhibition [21] was “inactive” and the CL renal [22] was 4.4 mL/min/kg. The IC50 [23] was 0.51 µM, the inhibition [24] was “inactive” and the inhibition [25] was “inactive”. The inhibition [26] was “inactive”, the inhibition [27] was “inactive” and the inhibition [28] was “inactive”. For the same compound, the inhibition [29] was “inactive”, the inhibition [30] was “inactive” and the Papp [31] was 0.3 ×10⁻⁶ cm/s. For the same compound, the inhibition [32] was “inactive”, the inhibition [33] was “inactive” and the “inhibition (INH)” value (Cytochrome P450 2D6) was “Not Active”. For the same compound, the inhibition [34] was “inactive”.
